Results as given in EP4725957A1, “GROUP OF CYCLIC ALKALINE LIPOPEPTIDE COMPOUNDS, AND PREPARATION METHOD THEREFOR AND USE THEREOF” (Institute of Medicinal Biotechnology, Chinese Academy of …, priority 2023, dated 2024).
Converted amounts (≈) assume the structure as drawn. Numbered stars: 1 amine (or outer) side, 2 acyl side, 3 side chain; on linkers, the order of the positions; unused ones are H or OH. Bridge positions count the residues as written; N and C are the ends. Square brackets hold non-standard residues; d marks the D form. Peptide text beside a SMILES is read from it. * marks the point of attachment. X3 = O=C([C@@H](Cc1ccc(CS(=O)(=O)O)cc1)N[*:1])[*:2]; Heptanoyl(6-Me) = CC(C)CCCCC(=O)*; Nonanoyl = CCCCCCCCC(=O)*; X1 = CC[C@H](C)CCCCC(=O)*; dDab = NCC[C@@H](N)C(=O)O; Octanoyl = CCCCCCCC(=O)*; Orn = NCCC[C@H](N)C(=O)O; Dab = NCC[C@H](N)C(=O)O; Dap = NC[C@H](N)C(=O)O

Columns and labels:
Type in all cases: cell-based
[1] = Nephrotoxicity assay: in vitro cytotoxicity of HK-2 cells by CCK-8 assay; details: human, HK-2 cells (human renal), 72 h incubation with drug-containing medium
In short: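 HK-2 human renal cells in RPMI-1640 with 10% FBS were exposed to compounds at final 12.5–500 µg/mL for 72 h, then CCK-8 for 3 h and OD450 read. Viability was normalised to drug-free wells; IC50 came from logarithmic regression over three repeats, with polymyxin B as positive drug.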

[2] = tested on: Klebsiella pneumoniae ATCC BAA-1705 (KPC); details: ATCC BAA-1705
In short: (§1)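 Broth microdilution per CLSI in Mueller-Hinton broth. Compounds were tested at final concentrations of 64 to 0.03 mg/L (two-fold steps) against an inoculum of (2-4) × 10^5 CFU/mL, with incubation at 35-37°C for 16-20 h to give the MIC.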

[3] = tested on: Klebsiella pneumoniae KPN+19-15; details: KPN+19-15
In short: as §1

[4] = tested on: Pseudomonas aeruginosa PAE19-3; details: PAE19-3
In short: as §1

[5] = tested on: Escherichia coli ATCC BAA-2340 (KPC); details: ATCC BAA-2340
In short: as §1

[6] = tested on: Acinetobacter baumannii ABA19-1; details: ABA19-1
In short: as §1

[7] = tested on: Pseudomonas aeruginosa ATCC 27853; details: ATCC 27853
In short: as §1

[8] = tested on: Acinetobacter baumannii NCTC 13304 (OXA-27); details: NCTC 13304
In short: as §1

[9] = tested on: Escherichia coli ATCC BAA-2523; details: ATCC BAA-2523
In short: as §1

With `CCCCCCCC(=O)N[C@@H](CN)C(=O)N[C@H](C(=O)N[C@H](CO)C(=O)N[C@H]1CCNC(=O)[C@H]([C@@H](C)O)NC(=O)[C@H](CCN)NC(=O)[C@H](CCN)NC(=O)[C@H]([C@@H](C)O)NC(=O)[C@@H](Cc2ccccc2)NC(=O)[C@H](CCN)NC1=O)[C@@H](C)O` [Compound 53, Octanoyl-Dap-Thr-D-Ser-ring(4-10)[Dab-Dab-D-Phe-Thr-Dab-Dab-Thr]] (Octanoyl-[Dap]T[dS][Dab][Dab][dF]T[Dab][Dab]T; lactam 4-C) the IC50 at 72 h [1] was greater than 500 µg/mL, the MIC [2] was 0.25 µg/mL (≈ 0.217 µM) and the MIC [3] was 0.5 µg/mL (≈ 0.435 µM). It also gave an MIC [4] of 4 µg/mL (≈ 3.48 µM), an MIC [5] of no more than 0.03 µg/mL and an MIC [6] of 0.25 µg/mL (≈ 0.217 µM). For the same compound, the MIC [7] was 64 µg/mL (≈ 55.6 µM), the MIC [8] was 0.25 µg/mL (≈ 0.217 µM) and the MIC [9] was no more than 0.03 µg/mL.
`CC(C)CCCCC(=O)N[C@@H](CCN)C(=O)N[C@H](C(=O)N[C@H](CO)C(=O)N[C@H]1CCNC(=O)[C@H]([C@@H](C)O)NC(=O)[C@H](CCN)NC(=O)[C@H](CCN)NC(=O)[C@H]([C@@H](C)O)NC(=O)[C@@H](Cc2ccc(CS(=O)(=O)O)cc2)NC(=O)[C@H](CCN)NC1=O)[C@@H](C)O` [Compound 107, 6-methylheptanoyl-Dab-Thr-D-Ser-ring(4-10)[Dab-Dab-D-Phe(4-CH2SO3H)-Thr-Dab-Dab-Thr]] ({Heptanoyl(6-Me)}-[Dab]T[dS][Dab][Dab][X3]T[Dab][Dab]T; lactam 4-C) showed an IC50 at 72 h [1] greater than 500 µg/mL, an MIC [2] of 0.125 µg/mL (≈ 0.0993 µM) and an MIC [3] of 0.125 µg/mL (≈ 0.0993 µM). It also gave an MIC [4] of 0.25 µg/mL (≈ 0.199 µM), an MIC [5] of 0.03 µg/mL (≈ 0.0238 µM) and an MIC [6] of 0.06 µg/mL (≈ 0.0477 µM). For the same compound, the MIC [7] was 0.25 µg/mL (≈ 0.199 µM), the MIC [8] was 0.06 µg/mL (≈ 0.0477 µM) and the MIC [9] was 0.03 µg/mL (≈ 0.0238 µM).
`CC[C@H](C)CCCCC(=O)N[C@@H](CN)C(=O)N[C@H](C(=O)N[C@H](CCN)C(=O)N[C@H]1CCNC(=O)[C@H]([C@@H](C)O)NC(=O)[C@H](CCN)NC(=O)[C@H](CCN)NC(=O)[C@H](CC(C)C)NC(=O)[C@@H](Cc2ccccc2)NC(=O)[C@H](CCN)NC1=O)[C@@H](C)O` [Compound 91, (S)-6-methyloctanoyl-Dap-Thr-D-Dab-ring(4-10)[Dab-Dab-D-Phe-Leu-Dab-Dab-Thr]] (X1-[Dap]T[dDab][Dab][Dab][dF]L[Dab][Dab]T; lactam 4-C) showed an IC50 at 72 h [1] of 126 ± 19.2 µg/mL (≈ 106 µM), an MIC [2] of 0.03 µg/mL (≈ 0.0252 µM) and an MIC [3] of 0.03 µg/mL (≈ 0.0252 µM). For the same compound, the MIC [4] was 0.5 µg/mL (≈ 0.42 µM), the MIC [5] was 0.03 µg/mL (≈ 0.0252 µM) and the MIC [6] was 0.03 µg/mL (≈ 0.0252 µM). It also gave an MIC [7] of 0.5 µg/mL (≈ 0.42 µM), an MIC [8] of 0.03 µg/mL (≈ 0.0252 µM) and an MIC [9] of 0.03 µg/mL (≈ 0.0252 µM).
With `CCCCCCCC(=O)N[C@@H](CCN)C(=O)N[C@H](C(=O)N[C@H](CO)C(=O)N[C@H]1CCNC(=O)[C@H]([C@@H](C)O)NC(=O)[C@H](CCN)NC(=O)[C@H](CCN)NC(=O)[C@H]([C@@H](C)O)NC(=O)[C@@H](Cc2ccccc2)NC(=O)[C@H](CCCN)NC1=O)[C@@H](C)O` [Compound 68, Octanoyl-Dab-Thr-D-Ser-ring(4-10)[Dab-Orn-D-Phe-Thr-Dab-Dab-Thr]] (Octanoyl-[Dab]T[dS][Dab][Orn][dF]T[Dab][Dab]T; lactam 4-C) the IC50 at 72 h [1] was greater than 500 µg/mL, the MIC [2] was 0.25 µg/mL (≈ 0.212 µM) and the MIC [3] was 0.5 µg/mL (≈ 0.424 µM). It also gave an MIC [4] of 4 µg/mL (≈ 3.39 µM), an MIC [5] of 0.25 µg/mL (≈ 0.212 µM) and an MIC [6] of 0.25 µg/mL (≈ 0.212 µM). For the same compound, the MIC [7] was 64 µg/mL (≈ 54.3 µM), the MIC [8] was 0.25 µg/mL (≈ 0.212 µM) and the MIC [9] was 0.25 µg/mL (≈ 0.212 µM).
In the case of `CCCCCCCCC(=O)N[C@@H](CCN)C(=O)N[C@H](C(=O)N[C@H](CO)C(=O)N[C@H]1CCNC(=O)[C@H]([C@@H](C)O)NC(=O)[C@H](CCN)NC(=O)[C@H](CCN)NC(=O)[C@H]([C@@H](C)O)NC(=O)[C@@H](Cc2ccccc2)NC(=O)[C@H](CN)NC1=O)[C@@H](C)O` [Compound 65, Nonanoyl-Dab-Thr-D-Ser-ring(4-10)[Dab-Dap-D-Phe-Thr-Dab-Dab-Thr]] (Nonanoyl-[Dab]T[dS][Dab][Dap][dF]T[Dab][Dab]T; lactam 4-C), the IC50 at 72 h [1] is reported as 370 ± 31.8 µg/mL (≈ 318 µM), the MIC [2] is reported as 0.25 µg/mL (≈ 0.215 µM) and the MIC [3] is reported as 0.5 µg/mL (≈ 0.429 µM). It also gave an MIC [4] of 8 µg/mL (≈ 6.87 µM), an MIC [5] of 0.25 µg/mL (≈ 0.215 µM) and an MIC [6] of 0.25 µg/mL (≈ 0.215 µM). It also gave an MIC [7] of 64 µg/mL (≈ 55 µM), an MIC [8] of 0.25 µg/mL (≈ 0.215 µM) and an MIC [9] of 0.25 µg/mL (≈ 0.215 µM).
For `CCCCCCCCC(=O)N[C@@H](CCN)C(=O)N[C@H](C(=O)N[C@H](CO)C(=O)N[C@H]1CCNC(=O)[C@H]([C@@H](C)O)NC(=O)[C@H](CCN)NC(=O)[C@H](CCCN)NC(=O)[C@H]([C@@H](C)O)NC(=O)[C@@H](Cc2ccccc2)NC(=O)[C@H](CCN)NC1=O)[C@@H](C)O` [Compound 80, Nonanoyl-Dab-Thr-D-Ser-ring(4-10)[Dab-Dab-D-Phe-Thr-Orn-Dab-Thr]] (Nonanoyl-[Dab]T[dS][Dab][Dab][dF]T[Orn][Dab]T; lactam 4-C), the IC50 at 72 h [1] was 288 ± 19.5 µg/mL (≈ 241 µM), the MIC [2] was 0.25 µg/mL (≈ 0.21 µM) and the MIC [3] was 0.5 µg/mL (≈ 0.419 µM). The MIC [4] was 64 µg/mL (≈ 53.7 µM), the MIC [5] was 0.06 µg/mL (≈ 0.0503 µM) and the MIC [6] was 0.06 µg/mL (≈ 0.0503 µM). The MIC [7] was greater than 64 µg/mL, the MIC [8] was 0.03 µg/mL (≈ 0.0252 µM) and the MIC [9] was 0.06 µg/mL (≈ 0.0503 µM).
